Source: the supplement of paper PMC10307832

How the values were obtained:
Experiment in all cases: relative viability (nuclei count vs DMSO), 5 days (fraction); higher = more cells survive
Bortezomib + Luminespib = compound: CC(C)C[C@H](NC(=O)[C@H](Cc1ccccc1)NC(=O)c1cnccn1)B(O)O [Bortezomib] + CCNC(=O)c1noc(-c2cc(C(C)C)c(O)cc2O)c1-c1ccc(CN2CCOCC2)cc1 [Luminespib] (partner 0.01 µM)
Outline: (§1)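 Lung cancer cell lines in 1536-well plates got either a single drug or a fixed anchor-drug dose together with five library-drug doses (not always all listed) in √10 steps, by pin tool, on the day after seeding. Nuclei were counted after 5 days, and relative viability is the treated-to-vehicle ratio of nuclei counts. Values are medians of duplicate plates.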

Bortezomib + Navitoclax = compound: CC(C)C[C@H](NC(=O)[C@H](Cc1ccccc1)NC(=O)c1cnccn1)B(O)O [Bortezomib] + CC1(C)CCC(c2ccc(Cl)cc2)=C(CN2CCN(c3ccc(C(=O)NS(=O)(=O)c4ccc(N[C@H](CCN5CCOCC5)CSc5ccccc5)c(S(=O)(=O)C(F)(F)F)c4)cc3)CC2)C1 [Navitoclax] (partner 0.5 µM)
Outline: as §1

[1] = compound: CC1=CC(=NN1)NC2=CC(=NC(=N2)/C=C/C3=CC=CC=C3)N4CCN(CC4)C + Cc1nc(NC(=O)N2CCC[C@H]2C(N)=O)sc1-c1ccnc(C(C)(C)C(F)(F)F)c1 [Alpelisib] (partner 2 µM)
Outline: as §1

Obatoclax + Pictilisib = compound: COC1=CC(c2cc3ccccc3[nH]2)=N/C1=C\c1[nH]c(C)cc1C [Obatoclax] + CS(=O)(=O)N1CCN(Cc2cc3nc(-c4cccc5[nH]ncc45)nc(N4CCOCC4)c3s2)CC1 [Pictilisib] (partner 1 µM)
Outline: as §1

| Cell Line | relative viability (Bortezomib + Luminespib; first compound 0.0002 µM) | relative viability (Bortezomib + Luminespib; first compound 0.000632 µM) | relative viability (Bortezomib + Luminespib; first compound 0.002 µM) | relative viability (Bortezomib + Luminespib; first compound 0.006325 µM) | relative viability (Bortezomib + Luminespib; first compound 0.02 µM) | relative viability (Bortezomib + Navitoclax; first compound 0.0002 µM) | relative viability (Bortezomib + Navitoclax; first compound 0.000632 µM) | relative viability (Bortezomib + Navitoclax; first compound 0.002 µM) | relative viability (Bortezomib + Navitoclax; first compound 0.006325 µM) | relative viability (Bortezomib + Navitoclax; first compound 0.02 µM) | relative viability ([1]; first compound 0.08 µM) | relative viability ([1]; first compound 0.253 µM) | relative viability ([1]; first compound 0.8 µM) | relative viability ([1]; first compound 2.53 µM) | relative viability ([1]; first compound 8 µM) | relative viability (Obatoclax + Pictilisib; first compound 0.01 µM) | relative viability (Obatoclax + Pictilisib; first compound 0.03162 µM) | relative viability (Obatoclax + Pictilisib; first compound 0.1 µM) | relative viability (Obatoclax + Pictilisib; first compound 0.3162 µM) | relative viability (Obatoclax + Pictilisib; first compound 1 µM) |
| --- | --- | --- | --- | --- | --- | --- | --- | --- | --- | --- | --- | --- | --- | --- | --- | --- | --- | --- | --- | --- |
| BEN | 0.314 | 0.665 | 0.568 | 0.249 | 0.184 | 0.0276 | 0.0636 | 0.151 | 0.0617 | 0.0356 | 1.06 | 1.1 | 0.986 | 0.865 | 0.186 | 0.534 | 0.57 | 0.447 | 0.54 | 0.587 |
| NCI-H23 | 0.224 | 0.208 | 0.208 | 0.18 | 0.169 |  | 0.495 | 0.834 | 0.212 | 0.126 | 0.55 | 0.859 | 0.704 | 0.265 | 0.12 | 0.43 | 0.442 | 0.57 | 0.4 | 0.197 |
| UMC-11 | 0.871 | 0.978 | 0.972 | 0.597 | 0.167 | 0.288 | 0.281 | 0.315 | 0.12 | 0.101 | 0.948 | 0.963 | 0.404 | 0.13 | 0.103 | 0.849 | 0.819 | 0.806 | 0.645 | 0.298 |
| NCI-H1975 | 0.192 | 0.122 | 0.158 | 0.138 | 0.177 | 1.05 | 1.05 | 0.315 | 0.136 | 0.133 | 0.59 | 0.655 | 0.42 | 0.141 | 0.109 | 0.299 | 0.313 | 0.258 | 0.292 | 0.199 |
| COR-L 105 | 0.784 | 0.914 | 0.614 | 0.434 | 0.211 | 0.745 | 0.786 | 0.684 | 0.291 | 0.253 | 0.946 | 1.08 | 0.967 | 0.605 | 0.186 | 0.407 | 0.47 | 0.495 | 0.328 | 0.286 |
| LK-2 | 0.182 | 0.186 | 0.238 | 0.182 | 0.172 | 0.828 | 0.878 | 0.238 | 0.172 | 0.174 | 1.1 | 0.668 | 0.966 | 0.605 | 0.211 | 0.566 | 0.639 | 0.655 | 0.502 | 0.581 |
| EKVX | 0.833 | 0.827 | 0.89 | 0.646 | 0.113 | 0.95 | 1.03 | 0.978 | 0.44 | 0.0945 | 0.856 | 1.09 | 0.941 | 0.675 | 0.167 | 0.426 | 0.427 | 0.507 | 0.41 | 0.355 |
| NCI-H2009 | 0.954 | 0.988 | 1.06 | 0.803 | 0.0826 | 1.16 | 1.1 | 1.15 | 0.0798 | 0.0607 | 1.09 | 1.19 | 1.16 | 1.13 | 0.241 | 0.927 | 0.936 | 0.706 | 0.281 | 0.228 |
| NCI-H838 | 0.428 | 0.302 | 0.264 | 0.124 | 0.103 | 1.21 | 1.21 | 1.17 | 0.171 | 0.161 | 1.02 | 1.13 | 0.884 | 0.749 | 0.139 | 0.52 | 0.508 | 0.421 | 0.35 | 0.247 |
| NCI-H2085 | 0.482 | 0.36 | 0.4 | 0.178 | 0.235 | 1.18 | 1.14 | 1.05 | 0.248 | 0.211 | 0.874 | 0.952 | 1.07 | 0.741 | 0.301 | 0.446 | 0.433 | 0.483 | 0.338 | 0.242 |
